US7803930B2, “Antisense modulation of apolipoprotein B-expression” (Isis Pharmaceuticals, Inc., priority 2002, dated 2010)
In the oligonucleotide strings, read from the 5' end, every base follows the letter of its sugar. An asterisk marks phosphorothioate; unmarked linkages are phosphodiester. Other units and linkages are bracketed, terminal groups are in braces. A string of capitals states the bases alone. e = 2'-O-(2-methoxyethyl) (MOE); [5mC] = 5-methylcytosine; d = 2'-deoxy (DNA)

Tested on: human apolipoprotein B mRNA
Test: Inhibition of human apolipoprotein B mRNA levels in HepG2 cells, quantitative real-time PCR
Assay type: cell-based
Details: for % INHIB (inhibition of human apolipoprotein B mRNA levels): HepG2 cells treated with 150 nM of compound, quantitative real-time PCR; for % Change in apolipoprotein B mRNA expression: 24 hour (Table 40)
How it was run: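 HepG2 cells at 80% confluency were transfected with antisense oligonucleotide using 3.75 μg/mL Lipofectin in Opti-MEM for 4-7 h and harvested 16-24 h after treatment. Apolipoprotein B mRNA was measured by real-time RT-PCR and normalized to GAPDH or RiboGreen total RNA. Percent inhibition came from untreated-control standard curves.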

[1] = HepG2 cells, human apolipoprotein B mRNA, oligonucleotides targeting genomic sequence SEQ ID NO 334, averages from two experiments
[2] = Table 11 gene walk, HepG2 cells, 50 nM, averages from two experiments
[3] = Table 11 gene walk, HepG2 cells, 150 nM, averages from two experiments
[4] = Table 15, HepG2 cells, 150 nM, averages from two experiments
[5] = Table 1, HepG2 cells, 150 nM, averages from two experiments

| Substance | % INHIB (inhibition of human apolipoprotein B mRNA levels) (averages from two experiments) | % INHIB [1] | also measured |
| --- | --- | --- | --- |
| 301036 (eT*eT*eT*eG*eG*dT*dG*d[5mC]*dA*dG*dG*dT*d[5mC]*d[5mC]*dA*eG*eT*eT*e[5mC]*eA; antisense) [compound 301036] | 88% | – | % inhibition 37 nM (Table 19 dose response, HepG2 cells, 37 nM, normalized to untreated control): 67%; % inhibition 75 nM (Table 19 dose response, HepG2 cells, 75 nM, normalized to untreated control): 83%; % inhibition 150 nM (Table 19 dose response, HepG2 cells, 150 nM, normalized to untreated control): 92%; % inhibition 300 nM (Table 19 dose response, HepG2 cells, 300 nM, normalized to untreated control): 95% |
| 271019 (antisense eT*eA*eT*eG*eT*d[5mC]*dT*dG*d[5mC]*dA*dG*dT*dT*dG*dA*eG*eA*eT*eA*eG) [compound 271019] | 15% | – | – |
| 301182 (antisense e[5mC]*e[5mC]*eA*eA*e[5mC]*dT*d[5mC]*d[5mC]*d[5mC]*d[5mC]*d[5mC]*dT*dT*dT*d[5mC]*eT*eT*eT*eG*eT) [compound 301182] | – | 37% | – |
| 271032 (e[5mC]*eT*eG*eT*eG*dG*d[5mC]*dT*dA*dA*d[5mC]*dT*dT*d[5mC]*dA*eA*eT*e[5mC]*e[5mC]*e[5mC]; antisense) [compound 271032] | 22% | – | – |
| 301117 (antisense eT*eA*eG*eA*e[5mC]*dA*dA*dT*dT*dG*dA*dG*dA*d[5mC]*dT*e[5mC]*eA*eG*eA*eA) [compound 301117] | – | 39% | – |
| 281606 (antisense eT*eG*e[5mC]*eA*eA*d[5mC]*dT*dG*dT*dA*dA*dT*d[5mC]*d[5mC]*dA*eG*e[5mC]*eT*e[5mC]*e[5mC]) [compound 281606] | 86% | – | – |
| 271017 (antisense eG*eG*eT*eG*e[5mC]*d[5mC]*dT*dG*dT*d[5mC]*dT*dG*d[5mC]*dT*d[5mC]*eA*eG*e[5mC]*eT*eG) [compound 271017] | 30% | – | – |
| 308644 (antisense GCCTCAGTCTGCTTCGCACC; 3-10-7 2'-MOE gapmer, phosphorothioate, chemistry not fully specified) [compound 308644] | – | – | % INHIB 50 nm (HepG2 cells, 50 nm oligonucleotide, variable deoxy gap position): 71%; % INHIB 150 nm (HepG2 cells, 150 nm oligonucleotide, variable deoxy gap position): 93% |
| 301094 (antisense eA*e[5mC]*eT*e[5mC]*eA*dA*dT*dA*dT*dA*dT*dA*dT*dT*d[5mC]*eA*eT*eT*eG*eA) [compound 301094] | – | 22% | – |
| 281601 (antisense eA*eG*e[5mC]*e[5mC]*eT*dG*dG*dA*dT*dG*dG*d[5mC]*dA*dG*d[5mC]*eT*eT*eT*e[5mC]*eT) [compound 281601] | 83% | – | – |
| 301064 (e[5mC]*eA*eG*eT*eG*d[5mC]*d[5mC]*dT*d[5mC]*dT*dG*dG*dG*dA*d[5mC]*e[5mC]*e[5mC]*e[5mC]*eA*e[5mC]; antisense) [compound 301064] | – | 60% | – |
| 308610 (eA*e[5mC]*e[5mC]*eA*eG*d[5mC]*d[5mC]*dA*d[5mC]*dA*dT*dG*d[5mC]*dA*dG*e[5mC]*eT*eT*e[5mC]*eA; antisense) [compound 308610] | – | – | % INHIB 50 nm [2]: 40%; % INHIB 150 nm [3]: 90% |
| 332769 (antisense GCCTCAGTCTGCTTCGCACC; all 2'-MOE, all phosphorothioate, methylation of C not given here) [compound 332769] | – | – | % Change in apolipoprotein B mRNA expression (HepG2 cells, 50 nM): −11%; % Change in apolipoprotein B mRNA expression (HepG2 cells, 150 nM): −14% |
| 271049 (eG*eT*e[5mC]*e[5mC]*eA*dG*d[5mC]*d[5mC]*dA*dA*d[5mC]*dT*dA*dT*dA*e[5mC]*eT*eT*eG*eG; antisense) [compound 271049] | 54% | – | – |
| 301081 (eG*eA*eG*eT*eG*dT*dG*dG*dT*d[5mC]*dT*dT*dG*d[5mC]*dT*eA*eG*eT*eG*e[5mC]; antisense) [compound 301081] | – | 46% | – |
| 301221 (antisense e[5mC]*eT*eA*eG*eA*dG*dG*dT*dT*dT*dT*dG*d[5mC]*dT*dG*eT*eG*e[5mC]*e[5mC]*eA) [compound 301221] | – | – | % INHIB [4]: 61% |
| 301017 (eT*e[5mC]*e[5mC]*eT*e[5mC]*dA*dG*d[5mC]*dG*dG*d[5mC]*dA*dG*d[5mC]*dA*eA*e[5mC]*e[5mC]*eG*eA; antisense) [compound 301017] | 47% | – | – |
| 271003 (antisense eG*eA*e[5mC]*eA*e[5mC]*d[5mC]*dA*dT*d[5mC]*dA*dG*dG*dA*dA*d[5mC]*eT*eT*eG*eA*e[5mC]) [compound 271003] | 46% | – | – |

| Substance | % INHIB (inhibition of human apolipoprotein B mRNA levels) (averages from two experiments) | % INHIB [1] | also measured |
| --- | --- | --- | --- |
| 301202 (antisense e[5mC]*eA*eG*e[5mC]*eT*d[5mC]*dA*d[5mC]*dA*d[5mC]*dT*dT*dA*dT*dT*eT*eT*eA*eA*eA) [compound 301202] | – | 7% | – |
| 271033 (e[5mC]*eA*eG*eT*eA*d[5mC]*dT*dG*dT*dT*dA*dT*dG*dA*d[5mC]*eT*eA*e[5mC]*e[5mC]*e[5mC]; antisense) [compound 271033] | 34% | – | – |
| 147829 (antisense eT*eA*eT*eA*eT*d[5mC]*d[5mC]*d[5mC]*dA*dG*dG*dT*dT*dT*d[5mC]*e[5mC]*e[5mC]*e[5mC]*eG*eG) [compound 147829] | – | – | % INHIB [5]: 64% |
| 301145 (eA*eA*eG*eG*eA*d[5mC]*d[5mC]*dT*dT*d[5mC]*dA*dG*d[5mC]*dA*dA*eA*eG*eG*eT*eA; antisense) [compound 301145] | – | 36% | – |
| 301156 (eT*e[5mC]*eT*eT*eT*d[5mC]*dA*dA*dA*d[5mC]*dT*dG*dG*d[5mC]*dT*eA*eG*eG*e[5mC]*eA; antisense) [compound 301156] | – | 39% | – |
| 271016 (antisense eA*e[5mC]*e[5mC]*e[5mC]*eA*dG*dA*dA*dT*d[5mC]*dA*dT*dG*dG*d[5mC]*e[5mC]*eT*eG*eA*eT) [compound 271016] | 19% | – | – |
| ISIS 332770: ISIS 301012 derivative with a single thymidine to cytosine substitution in the center of the oligonucleotide (GCCTCAGTCTTCTTCGCACC; sugars from the 5' end e5 d10 e5, all phosphorothioate, methylation of C not given here) | – | – | potency relative to ISIS 301012 (fold less potent) (HepG2 cells, 50 or 150 nM, 24 hours): 3 fold |
| 308625 (e[5mC]*eT*eT*e[5mC]*eG*d[5mC]*dG*d[5mC]*d[5mC]*dT*dT*d[5mC]*dT*dG*d[5mC]*eT*eT*eG*eA*eG; antisense) [compound 308625] | – | – | % INHIB 50 nm (Table 13 gene walk, HepG2 cells, 50 nM, averages from two experiments): 64%; % INHIB 150 nm (Table 13 gene walk, HepG2 cells, 150 nM, averages from two experiments): 83% |
| 301196 (antisense e[5mC]*e[5mC]*eG*eG*e[5mC]*d[5mC]*dA*dT*d[5mC]*dG*d[5mC]*dT*dG*dA*dA*eA*eT*eG*eA*eA) [compound 301196] | – | 54% | – |
| 332775 (antisense GCCTCATTATTATTATCACC; sugars from the 5' end e5 d10 e5, all phosphorothioate, methylation of C not given here) [compound 332775] | – | – | % Change in apolipoprotein B mRNA expression (HepG2 cells, 50 nM): −1%; % Change in apolipoprotein B mRNA expression (HepG2 cells, 150 nM): +10% |
| 301137 (eA*eG*eT*eG*eG*dA*dA*dG*dT*dT*dT*dG*dG*dT*d[5mC]*eT*e[5mC]*eA*eT*eT; antisense) [compound 301137] | – | 41% | – |
| 301220 (antisense eA*eG*eA*eG*eG*dT*dT*dT*dT*dG*d[5mC]*dT*dG*dT*dG*e[5mC]*e[5mC]*eA*eG*eA) [compound 301220] | – | – | % INHIB [4]: 51% |
| 147831 (antisense e[5mC]*eT*eG*e[5mC]*e[5mC]*dT*dA*d[5mC]*dT*dG*d[5mC]*dA*dA*dG*dG*e[5mC]*eT*eG*eG*e[5mC]) [compound 147831] | – | – | % INHIB [5]: 0% |
| 271046 (e[5mC]*e[5mC]*e[5mC]*eT*eA*dG*dT*dG*dT*dA*dT*dA*dT*d[5mC]*d[5mC]*e[5mC]*eA*eG*eG*eT; antisense) [compound 271046] | 61% | – | – |
| 301138 (eT*eT*eG*e[5mC]*eT*dA*dG*d[5mC]*dT*dT*d[5mC]*dA*dA*dA*dG*eT*eG*eG*eA*eA; antisense) [compound 301138] | – | 44% | – |
| 308604 (eA*eT*eG*eT*e[5mC]*dA*dT*dG*dG*dT*dA*dG*d[5mC]*d[5mC]*dT*e[5mC]*eA*eG*eT*e[5mC]; antisense) [compound 308604] | – | – | % INHIB 50 nm [2]: 73%; % INHIB 150 nm [3]: 90% |
| 301173 (antisense e[5mC]*eA*eT*e[5mC]*eT*d[5mC]*dT*dA*dA*d[5mC]*d[5mC]*dT*dG*dG*dT*eG*eT*e[5mC]*e[5mC]*e[5mC]) [compound 301173] | – | 21% | – |
| 301044 (eA*eA*eA*eA*eT*dA*dA*d[5mC]*dT*d[5mC]*dA*dG*dA*dT*d[5mC]*e[5mC]*eT*eG*eA*eT; antisense) [compound 301044] | 76% | – | – |
